We go through three compounds from ChEMBL document CHEMBL4823243, “Synergistic induction of apoptosis in resistant head and neck carcinoma and leukemia by alkoxyamide-based histone deacetylase inhibitors” (Eur J Med Chem, 2021).

The source made the active and inactive calls. The calls are words filed in the database; no cut-off is given here. Bounds are passed on as bounds.

The target of assay [1] is T1, Histone deacetylase (Homo sapiens) (UniProt Q13547+O15379+Q9UBN7+Q92769+Q9UQL6+Q8WUI4+Q9BY41+Q96DB2+P56524+Q9UKV0+Q969S8). The assay can be described thus: Inhibition of HDAC in human Cal27CisR cells assessed as combination index at 0.5 uM measured in presence of 50 uM cDDP by MTT-based Chou-Talalay method. The class given is cell-based.
Assay [2] deals with CAL-27. Put plainly: Induction of DNA damage in human CAL-27 cells assessed as upregulation of gamma H2AX in presence cisplatin measured by Western blot analysis. In kind it is functional, cell-based. For orientation: In western blotting, separated proteins are transferred to a membrane and probed.
The target of the next assay is Histone deacetylase. The assay can be described thus: Inhibition of HDAC in human A2780 cells using Boc-Lys (acetyl)-AMC as substrate preincubated for 18 hrs followed by susbtrate addition and measured after 3 hrs by fluorescence microplate reader assay. The class given is cell-based.
The next assay deals with Histone deacetylase 2 (Homo sapiens, UniProt Q92769). Put plainly: Inhibition of recombinant human full length C-terminal GST-fusion tagged HDAC2 expressed in baculovirus infected insect cells using Boc-Lys(Ac)-AMC as substrate preincubated for 5 mins followed by substrate addition measured after 90 mins by fluorimetry. The class given is cell-based.
Chain of Histone deacetylase 2 (Q92769 whole entry, the tested form may be a part): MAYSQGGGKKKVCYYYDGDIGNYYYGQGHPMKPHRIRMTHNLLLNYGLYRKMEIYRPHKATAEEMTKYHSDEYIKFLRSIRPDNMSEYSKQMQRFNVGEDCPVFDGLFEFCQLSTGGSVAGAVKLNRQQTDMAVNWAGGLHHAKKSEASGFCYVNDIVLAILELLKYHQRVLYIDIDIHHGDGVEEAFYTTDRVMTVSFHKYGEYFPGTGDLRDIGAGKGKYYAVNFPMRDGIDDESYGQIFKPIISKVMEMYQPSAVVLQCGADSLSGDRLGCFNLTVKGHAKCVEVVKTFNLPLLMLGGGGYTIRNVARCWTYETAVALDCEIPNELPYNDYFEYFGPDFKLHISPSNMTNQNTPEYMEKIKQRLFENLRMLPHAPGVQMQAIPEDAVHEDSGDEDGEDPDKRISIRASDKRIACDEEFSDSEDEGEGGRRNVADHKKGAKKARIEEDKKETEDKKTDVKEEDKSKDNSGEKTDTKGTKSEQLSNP
In assay [3] the test system is CAL-27. The assay can be described thus: Antiproliferative activity against human CAL-27 cells assessed as reduction in cell viability after 72 hrs by MTT assay. The settings on record: CAL-27, 72 h. The class given is functional, cell-based.
In assay [4] the target is T1, Histone deacetylase (Homo sapiens). The assay can be described thus: Inhibition of HDAC in human Cal27CisR cells assessed as combination index at 0.5 uM measured in presence of 10 uM cDDP by MTT-based Chou-Talalay method. The class given is cell-based.
The target in assay [5] is Class 1 histone deacetylase (Homo sapiens) (UniProt Q13547+O15379+Q92769+Q9BY41). Put plainly: Inhibition of class-1 HDAC in human CAL-27 cells assessed as induction of histone H-3 acetylation at 5 uM for 24 hrs by Western blot analysis. In kind it is cell-based.
Assay [6] deals with T2, Protein deacetylase HDAC6 (Homo sapiens, UniProt Q9UBN7).
T2 sequence (Q9UBN7 whole entry): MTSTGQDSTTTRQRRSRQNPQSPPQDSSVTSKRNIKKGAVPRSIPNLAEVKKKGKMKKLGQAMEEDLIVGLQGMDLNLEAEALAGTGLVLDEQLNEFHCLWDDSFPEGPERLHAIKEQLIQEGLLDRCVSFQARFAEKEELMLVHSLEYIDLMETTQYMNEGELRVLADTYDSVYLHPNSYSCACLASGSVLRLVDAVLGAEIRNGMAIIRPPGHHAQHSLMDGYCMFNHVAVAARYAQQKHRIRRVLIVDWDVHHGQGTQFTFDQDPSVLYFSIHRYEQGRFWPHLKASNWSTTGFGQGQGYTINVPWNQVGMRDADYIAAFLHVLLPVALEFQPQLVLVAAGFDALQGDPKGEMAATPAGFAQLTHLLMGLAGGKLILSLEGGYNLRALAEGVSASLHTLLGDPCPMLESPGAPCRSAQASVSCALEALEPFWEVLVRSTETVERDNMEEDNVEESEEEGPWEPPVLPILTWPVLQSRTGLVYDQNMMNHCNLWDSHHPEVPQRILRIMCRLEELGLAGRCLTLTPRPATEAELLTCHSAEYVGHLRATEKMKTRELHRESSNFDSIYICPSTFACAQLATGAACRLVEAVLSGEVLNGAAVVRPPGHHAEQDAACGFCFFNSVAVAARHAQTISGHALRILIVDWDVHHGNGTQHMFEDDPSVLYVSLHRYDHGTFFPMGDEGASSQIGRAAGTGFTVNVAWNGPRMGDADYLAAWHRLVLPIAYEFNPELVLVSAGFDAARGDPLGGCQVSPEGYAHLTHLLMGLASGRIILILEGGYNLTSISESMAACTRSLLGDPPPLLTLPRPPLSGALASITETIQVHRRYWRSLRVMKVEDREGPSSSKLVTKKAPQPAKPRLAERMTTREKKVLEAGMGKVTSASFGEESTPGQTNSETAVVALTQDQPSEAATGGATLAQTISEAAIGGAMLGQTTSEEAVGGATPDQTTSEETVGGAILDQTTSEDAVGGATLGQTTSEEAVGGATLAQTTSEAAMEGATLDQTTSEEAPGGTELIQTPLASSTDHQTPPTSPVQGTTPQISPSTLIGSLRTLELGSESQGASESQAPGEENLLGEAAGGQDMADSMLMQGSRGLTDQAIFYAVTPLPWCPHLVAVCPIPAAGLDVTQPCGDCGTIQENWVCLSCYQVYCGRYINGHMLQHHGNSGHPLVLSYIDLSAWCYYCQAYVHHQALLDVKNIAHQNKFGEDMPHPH
Put plainly: Inhibition of recombinant human N-terminal GST-tagged HDAC6 (1 to 1215 residues) expressed in baculovirus infected insect cells using Boc-Lys(Ac)-AMC as substrate preincubated for 5 mins followed by substrate addition measured after 90 mins by fluorimetry.

Another assay has as its system A2780. Put plainly: Antiproliferative activity against human A2780 cells assessed as reduction in cell viability after 72 hrs by MTT assay. In kind it is functional, cell-based. The settings on record: A2780, 72 h. (Formazan colour is commonly taken as a measure of viable cells.)
Another assay deals with Histone deacetylase 4 (Homo sapiens, UniProt P56524). Put plainly: Inhibition of recombinant human N-terminal GST-fusion tagged/C-terminal GST-tagged HDAC4 (627 to 1084 residues) expressed in baculovirus infected insect cells using Boc-Lys(TFA)-AMC as substrate preincubated for 5 mins followed by substrate addition measured after 90 mins by fluorimetry.
Chain of Histone deacetylase 4 (P56524 whole entry, the tested form may be a part): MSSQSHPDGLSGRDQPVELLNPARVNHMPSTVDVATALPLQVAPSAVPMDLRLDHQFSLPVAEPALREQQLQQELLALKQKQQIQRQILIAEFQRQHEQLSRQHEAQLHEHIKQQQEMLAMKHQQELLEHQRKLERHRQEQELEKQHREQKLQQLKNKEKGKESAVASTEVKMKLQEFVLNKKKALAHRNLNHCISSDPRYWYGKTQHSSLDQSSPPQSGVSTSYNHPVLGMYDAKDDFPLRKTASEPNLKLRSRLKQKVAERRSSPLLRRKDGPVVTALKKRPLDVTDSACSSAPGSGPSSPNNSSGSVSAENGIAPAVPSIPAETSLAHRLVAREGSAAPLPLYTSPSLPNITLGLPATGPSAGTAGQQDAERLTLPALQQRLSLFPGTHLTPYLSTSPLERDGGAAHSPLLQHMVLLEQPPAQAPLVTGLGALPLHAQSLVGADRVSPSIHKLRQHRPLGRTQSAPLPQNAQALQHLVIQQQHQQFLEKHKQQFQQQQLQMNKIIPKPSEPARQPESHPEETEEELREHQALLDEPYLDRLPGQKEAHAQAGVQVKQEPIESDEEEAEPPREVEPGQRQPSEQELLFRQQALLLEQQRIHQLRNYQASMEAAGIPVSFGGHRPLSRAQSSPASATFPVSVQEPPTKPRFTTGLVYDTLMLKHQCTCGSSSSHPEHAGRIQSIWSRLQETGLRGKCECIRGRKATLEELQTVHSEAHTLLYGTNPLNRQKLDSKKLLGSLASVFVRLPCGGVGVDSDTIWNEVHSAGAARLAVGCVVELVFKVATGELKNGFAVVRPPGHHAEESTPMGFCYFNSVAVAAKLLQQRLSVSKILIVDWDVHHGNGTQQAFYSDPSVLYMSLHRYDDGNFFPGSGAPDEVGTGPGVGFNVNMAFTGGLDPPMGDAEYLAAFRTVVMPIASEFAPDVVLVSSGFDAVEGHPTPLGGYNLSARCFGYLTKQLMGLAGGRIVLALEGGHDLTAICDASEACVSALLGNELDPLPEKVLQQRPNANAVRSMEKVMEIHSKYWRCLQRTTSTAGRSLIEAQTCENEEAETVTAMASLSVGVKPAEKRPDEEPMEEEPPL
In the next assay the target is T3, Histone deacetylase 8 (Homo sapiens, UniProt Q9BY41).
T3 sequence (Q9BY41 whole entry): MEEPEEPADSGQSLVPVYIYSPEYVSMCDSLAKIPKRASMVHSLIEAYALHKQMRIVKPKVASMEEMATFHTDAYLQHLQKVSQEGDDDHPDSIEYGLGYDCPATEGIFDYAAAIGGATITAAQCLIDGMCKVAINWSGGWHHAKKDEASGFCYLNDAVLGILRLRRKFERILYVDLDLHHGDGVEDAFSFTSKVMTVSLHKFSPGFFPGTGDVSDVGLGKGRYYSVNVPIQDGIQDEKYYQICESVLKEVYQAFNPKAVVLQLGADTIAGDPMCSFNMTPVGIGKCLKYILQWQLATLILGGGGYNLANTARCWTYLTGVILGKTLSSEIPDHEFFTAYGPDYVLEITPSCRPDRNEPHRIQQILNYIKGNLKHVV
Put plainly: Inhibition of recombinant human C-terminal His-fusion tagged/N-terminal Strep2 tagged HDAC8 (1 to 377 residues) expressed in insect cells using Boc-Lys(TFA)-AMC as substrate preincubated for 5 mins followed by substrate addition measured after 90 mins by fluorimetry.

The test system of assay [7] is Cal27CisR. Put plainly: Induction of DNA damage human Cal27CisR cells assessed as upregulation of gamma H2AX in presence cisplatin measured by Western blot analysis. The class given is functional.
In assay [8] the target is T4, Protein deacetylase HDAC6 (Homo sapiens) (UniProt Q9UBN7).
T4 sequence (whole entry): T2 sequence (Q9UBN7 whole entry)
Put plainly: Inhibition of HDAC6 in human CAL-27 cells assessed as accumulation of acetylated alpha-tubulin at 5 uM for 24 hrs by Western blot analysis. The class given is cell-based.

Assay [9] has as its system Cal27CisR. The assay can be described thus: Induction of DNA damage in human Cal27CisR cells assessed as increase in gamma H2AX phosphorylation pretreated for 24 hrs followed by cisplatin treatment and further incubated for 18 hrs measured by Western blot analysis. The class given is functional, cell-based. The settings on record: time 42.0 hrs.

`O=C(CCCCCONC(=O)c1ccc2ccccc2n1)NO`: the CI in assay [1] worked out at 0.5; in assay [4], 0.13. Moreover, the outcome (in the assay on CAL-27 [2]; in assay [5]; with Cal27CisR [7]; in the assay with Cal27CisR [9]) was Active. In addition, the IC50 against Histone deacetylase is 480 nM; on Histone deacetylase 2 it was 92 nM; with CAL-27 [3] it was 250 nM; in assay [6], 25 nM; with A2780, 800 nM; at Histone deacetylase 4, above 100000 nM. Also, the IC50 on Histone deacetylase 8 stood at 9780 nM. In addition, the inhibition entry in [8] is “Active”.

`O=C(CCCCCONC(=O)c1nccc2ccccc12)NO`: the CI in assay [1] is 0.97; in assay [4], 1.11. Besides, the result (in the assay with CAL-27 [2]; in [5]; in the assay on Cal27CisR [7]; with Cal27CisR [9]) was Active. In addition, the IC50 on Histone deacetylase is 250 nM; at Histone deacetylase 2, 759 nM; in the assay with CAL-27 [3] it was 2120 nM; in [6], 173 nM; with A2780, 19900 nM; at Histone deacetylase 4 it was above 100000 nM. Besides, on Histone deacetylase 8, the IC50 is 12400 nM. In [8], the inhibition entry was “Active”.

On to `O=C(CCCCCONC(=O)c1cc2ccccc2[nH]1)NO`, for which the results for the CI in assay [1] and in assay [4] were 0.47 and 0.27, respectively. The outcome (in the assay on CAL-27 [2]; in [5]; with Cal27CisR [7]; in the assay on Cal27CisR [9]) was Active. For the same compound, the IC50 against Histone deacetylase stood at 670 nM; at Histone deacetylase 2 it was 57 nM; with CAL-27 [3] it was 300 nM; in assay [6], 13 nM; with A2780 it was 4050 nM; on Histone deacetylase 4, 55700 nM. The IC50 at Histone deacetylase 8 was 10300 nM. Further, the inhibition result in [8] was “Active”.

Usually IC50 stands for the concentration that inhibits the measured activity by half.
